Assay results from US7737126B2, “Purine derivative” (Glaxo Group Limited, priority 2004, dated 2010).

Legend:
HSA = target: T1, HSA (Homo sapiens, UniProt P02768); assay: HSA binding by immobilised HSA HPLC column; format: in vitro ADME; conditions: for logK measured / % HSA measured: HSA column, typical data; for logK measured: derived from the calibration curve
T1 construct: purchased Chromtech (Cheshire, UK)
Description: Instrument: Agilent HP1100 HPLC instruments were used throughout.
HPLC columns: Chromtech Immobilised HSA HPLC column 50×3 mm was purchased from Chromtech (Cheshire, UK).
Mobile phase and detection: The mobile phase A was 50 mM pH 7.4 ammonium acetate solution, while mobile phase B was 2-Propanol (HPLC grade, Runcorn, UK). The mobile phase flow rate was 1.8 ml/min. The column temperature was kept at 30° C. The gradient profile and run time were the same with each column, the linear gradient from 0 to 30% 2-propanol was applied from 0 to 3 minutes. From 3 to 10 minutes, the mobile phase composition was constant 30% 2-propanol and 70% 50-mM ammonium acetate. […] Each separation was stopped after 15 minutes.
Detection: Chromatograms were recorded at 230 and 254 nm by a diode array UV absorption detector at room temperature.

plasma protein = assay: Literature % plasma protein binding of calibration compounds; conditions: linear conversion of literature % PPB
Description: Calibration of the protein columns: The column performance check and the calibration have been performed before the analysis of every 96 well plate. The compounds used for the column calibrations were dissolved separately in 0.5 mg/ml concentration in 50% 2-propanol and 50% pH 7.4 ammonium acetate solution mixtures.
The literature % PPB (bound in plasma) values were converted to the linear free energy related logk values (logarithm of apparent affinity constant) using the following equation.

[1] = Cardiovascular model (therapeutic index); format: in vivo, rat; conditions: anaesthetised male Wistar rats, administered into the trachea
Description: 3) Therapeutic Index (TI) Cardiovascular Model: Male Wistar rats were anaesthetised with chloralose/pentobarbitone and the jugular vein, left carotid artery and trachea were cannulated. The arterial cannula was connected to a transducer for the continuous measurement of blood pressure and heart rate. Compound (or vehicle) was administered into the trachea in a 100 ul volume, and the dose of test compound giving a 20% increase in blood pressure and heart rate (ED20) was determined. The TI for a test compound is calculated as the ratio of the ED20 in the cardiovascular model compared with the ED50 in the LPS model.

[2] = target: T2, human adenosine A1 receptor (Homo sapiens, UniProt P30542); assay: Agonist activity against adenosine A1 receptor (CHO or yeast assay); format: cell-based; conditions: A2A over A1
T2 construct: expressed in transfected cells; host or cells: CHO cells or yeast cells
T2 sequence (P30542 1-326): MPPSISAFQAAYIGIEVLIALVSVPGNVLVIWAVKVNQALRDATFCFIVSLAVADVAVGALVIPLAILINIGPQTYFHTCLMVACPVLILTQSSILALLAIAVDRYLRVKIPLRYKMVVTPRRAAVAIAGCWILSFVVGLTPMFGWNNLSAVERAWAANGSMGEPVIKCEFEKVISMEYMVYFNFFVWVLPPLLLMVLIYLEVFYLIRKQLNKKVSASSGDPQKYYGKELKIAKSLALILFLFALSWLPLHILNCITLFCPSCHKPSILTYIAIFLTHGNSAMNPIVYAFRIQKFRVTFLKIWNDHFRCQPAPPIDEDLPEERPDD
Description: (§1) 1) In Vitro: Agonist Activity Against Adenosine A1, A2A, A2B and A3 Receptors.
(§2) The agonist potency and selectivity of compounds against human adenosine receptors is determined using Chinese hamster ovary (CHO) cells or yeast cells transfected with the gene for the relevant receptor.
(§3) Two methods may be used in the CHO cells. (i) For the SPAP assay, cells are also transfected with cyclic AMP (cAMP) response elements promoting the gene for secreted placental alkaline phosphatase (SPAP). Changes in cAMP are measured as changes in the levels of SPAP. (ii) The DiscoveRx assay is an enzyme complementation assay that involves two fragments of β-galactosidase, enzyme acceptor (EA) and enzyme donor (ED). […] For both methods the effect of test compounds is determined by their effects on basal levels of cAMP (A2A and A2B) or on forskolin enhanced cAMP (A1 and A3).
(§4) For the yeast assay, receptor stimulation causes activation of a reporter gene, namely FUS1-HIS3, resulting in histidine production which is essential for cell growth. […] This response is measured from the production of the exoglucanase, an enzyme secreted constitutively by yeast cells.
(§5) In all of the in vitro assays the activity of test compounds is expressed as a ratio to that of the non-selective adenosine receptor agonist, N-ethyl carboxamide adenosine (NECA).

[3] = target: T3, human adenosine A3 receptor (Homo sapiens, UniProt P0DMS8); assay: Agonist activity against adenosine A3 receptor (CHO or yeast assay); format: cell-based; conditions: A2A over A3
T3 construct: expressed in transfected cells; host or cells: CHO cells or yeast cells
T3 sequence (P0DMS8 1-318): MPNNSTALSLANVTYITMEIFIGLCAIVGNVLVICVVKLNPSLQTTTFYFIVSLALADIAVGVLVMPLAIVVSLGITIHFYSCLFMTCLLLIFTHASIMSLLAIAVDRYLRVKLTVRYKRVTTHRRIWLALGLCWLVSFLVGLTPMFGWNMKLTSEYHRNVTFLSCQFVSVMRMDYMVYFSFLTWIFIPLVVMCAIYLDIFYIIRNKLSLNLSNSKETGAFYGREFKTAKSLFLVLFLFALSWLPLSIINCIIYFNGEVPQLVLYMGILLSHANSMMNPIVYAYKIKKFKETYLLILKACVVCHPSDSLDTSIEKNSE
Description: as §1, §2, §3, §4, §5

neutrophil accumulation = assay: In vivo anti-inflammatory LPS model; set-up: species or system rat; conditions: male CD albino rats, intratracheal, dose of 30 μg/kg or less, lung lavage 4 h after LPS challenge
Description: In Vivo Anti-Inflammatory Agonist Activity LPS Model: Test compound was administered to male CD albino rats prior to exposure to LPS. Compound (or vehicle) was injected in a 200 ul volume into the trachea , via a cannula placed trans-orally, whilst the animals were under isoflurane anaesthesia. After a recovery period of 30 min, rats were placed in a chamber and exposed to an aerosol of E. Coli-derived LPS for 15 min. Four hours after LPS challenge the rats were killed, the lungs lavaged, and both total and differential cell counts determined.

[4] = target: T4, human adenosine A2B receptor (Homo sapiens, UniProt P29275); assay: Agonist activity against adenosine A2B receptor (CHO or yeast assay); format: cell-based; conditions: A2A over A2B
T4 construct: expressed in transfected cells; host or cells: CHO cells or yeast cells
T4 sequence (P29275 1-332): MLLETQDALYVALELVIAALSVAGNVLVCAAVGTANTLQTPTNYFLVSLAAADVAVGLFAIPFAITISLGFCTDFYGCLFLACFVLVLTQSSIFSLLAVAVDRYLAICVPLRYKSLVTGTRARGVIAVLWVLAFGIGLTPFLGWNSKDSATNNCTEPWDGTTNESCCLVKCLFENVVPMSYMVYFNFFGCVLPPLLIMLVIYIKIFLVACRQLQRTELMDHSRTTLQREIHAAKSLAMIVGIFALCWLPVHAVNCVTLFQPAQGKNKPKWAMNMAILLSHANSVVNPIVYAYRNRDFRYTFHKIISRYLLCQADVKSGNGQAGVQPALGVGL
Description: as §1, §2, §3, §4, §5

T1 sequence (P02768 25-609): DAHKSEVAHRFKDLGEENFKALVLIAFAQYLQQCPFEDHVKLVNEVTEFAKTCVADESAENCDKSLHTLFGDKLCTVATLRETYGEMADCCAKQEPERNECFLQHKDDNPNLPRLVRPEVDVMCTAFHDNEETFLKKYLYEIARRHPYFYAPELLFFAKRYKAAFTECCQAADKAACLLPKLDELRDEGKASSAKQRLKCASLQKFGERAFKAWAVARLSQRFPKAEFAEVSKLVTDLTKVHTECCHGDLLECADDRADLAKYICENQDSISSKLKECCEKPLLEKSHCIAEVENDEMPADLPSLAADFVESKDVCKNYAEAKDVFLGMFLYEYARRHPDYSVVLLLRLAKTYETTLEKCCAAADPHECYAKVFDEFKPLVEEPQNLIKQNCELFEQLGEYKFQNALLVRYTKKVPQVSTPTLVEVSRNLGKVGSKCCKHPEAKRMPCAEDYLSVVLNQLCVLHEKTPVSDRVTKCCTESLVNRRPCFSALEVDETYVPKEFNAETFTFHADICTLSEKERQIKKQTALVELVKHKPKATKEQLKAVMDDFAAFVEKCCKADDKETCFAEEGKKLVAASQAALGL

Q: Which logK measured (HSA) does the source give for `O=C1CN=C(c2ccccn2)c2cc(Br)ccc2N1` [Bromazepam] here?
A: 0.38

Q: What about the “% HSA measured” value (HSA) of the same compound?
A: 71.2%

Q: And the “lit logK” value (plasma protein)?
A: 0.17

Q: Which results are given for `CCCC1O[C@@H]2C[C@H]3[C@@H]4CCC5=CC(=O)C=C[C@]5(C)[C@H]4[C@@H](O)C[C@]3(C)[C@]2(C(=O)CO)O1` (stereo partly drawn) [Budesonide]?
A: logK measured (HSA): 0.70; % HSA measured (HSA): 84.2%; lit logK (plasma protein): 0.83

Q: Which logK measured (HSA) does the source give for `NC(=O)N1c2ccccc2C=Cc2ccccc21` [Carbamazepine] here?
A: 0.50

Q: What about the “% HSA measured” value (HSA) of the same compound?
A: 76.8%

Q: What about the “lit logK” value (plasma protein) of the same compound?
A: 0.46

Q: For `O=C(O)Cc1ccccc1Nc1c(Cl)cccc1Cl` [Diclofenac], which “lit logK” value (plasma protein) is on record?
A: 1.92

Q: For `CCn1nnc([C@H]2O[C@@H](n3cnc4c(N[C@H]5CC[C@H](Nc6nc(NCCc7cn(C)cn7)nc7c6ncn7[C@@H]6O[C@H](c7nnn(CC)n7)[C@@H](O)[C@H]6O)CC5)nc(NCCc5cn(C)cn5)nc43)[C@H](O)[C@@H]2O)n1.O=CO` [Formic acid—(2R,3R,4S,5R,2′R,3′R,4′S,5′R)-2,2′-{trans-1,4-cyclohexanediylbis[imino(2-{[2-(1-methyl-1H-imidazol-4-yl)ethyl]amino}-9H-purine-6,9-diyl)]}bis[5-(2-ethyl-2H-tetrazol-5-yl)tetrahydro-3,4-furandiol] (4:1)], which “dose giving a 20% increase in blood pressure and heart rate (ED20)” value [1] is on record?
A: about 7 μg/kg

Q: And the “selectivity for A2A than A1” value [2]?
A: greater than 100 fold

Q: What about the “binding to HSA” value (HSA; immobilised HSA HPLC column, pH 7.4) of the same compound?
A: greater than 90%

Q: What about the “selectivity for A2A than A3” value [3] of the same compound?
A: greater than 100 fold

Q: And the “reduction in neutrophil accumulation” value (neutrophil accumulation)?
A: greater than 50%

Q: What about the “selectivity for A2A than A2B” value [4] of the same compound?
A: greater than 100 fold

Q: What does the source list for `COC(=O)C1=C(C)NC(C)=C(C(=O)OCCN(C)Cc2ccccc2)C1c1cccc([N+](=O)[O-])c1` (stereo not drawn) [Nicardipine]?
A: logK measured (HSA): 1.38; % HSA measured (HSA): 97.0%

Q: For `CNC(=C[N+](=O)[O-])NCCSCc1csc(CN(C)C)n1` [Nizatidine], which logK measured (HSA) is on record?
A: −0.35

Q: What about the “% HSA measured” value (HSA) of the same compound?
A: 31.1%

Q: And the “lit logK” value (plasma protein)?
A: −0.28

Q: For `CN1C(C(=O)Nc2ccccn2)=C(O)c2ccccc2S1(=O)=O` [Piroxicam], which logK measured (HSA) is on record?
A: 1.10

Q: What about the “% HSA measured” value (HSA) of the same compound?
A: 93.6%

Q: And the “lit logK” value (plasma protein)?
A: 1.16
